Source: article PMC5295395, “Inhibition of PlexA1-mediated brain tumor growth and tumor-associated angiogenesis using a transmembrane domain targeting peptide” (Oncotarget, 2016)

How the values were obtained:
Format in all cases: cell-based, human
PlexA4-PlexA1 complex = assay: co-immunoprecipitation of Plexin-A4 with PlexA1 in U373MG cells; conditions: 10^−7 M peptide 1 h
Procedure: (C) Rac-1 activation assay in resting condition and after Sema3A-induced Rac-1 activation in U373 MG cells. (D) Western blot analysis of phosphorylated Akt, total Akt and tubulin in U373MG cells treated with the vehicle (LDS 72 μM), Sema3A (100 ng/ml) or Sema3A + MTP-PlexA1 (10^−7 M). The lower panel is showing the quantification of the p-Akt/Akt ratio in the different conditions. (E) MTP-PlexA1 decreases VEGFR-2 phosphorylation induced by VEGF (100 ng/ml) in HUVEC cells. […]
in 20 mM sodium acetate (pH 4.5) at a flow rate of 5 μl/ min 10–7 M of MTP-PlexA1 or Vehicle (LDS, 72 µM) during until desired surface densities, measured in response 1 h. Stimulation was done with 100ng/ml Semaphorin 3A units, were reached. […] First antibodies (Rabbit anti-phospho-the elution buffer containing detergent removed non- akt, Rabbit anti-akt, Cell Signaling #4060 and #9272 biotinylated peptides rendering the chip ready for analysis respectively) and mouse anti-tubulin α (Cell Signaling with monomeric biot-MTP-PlexA1. Blank surfaces were #2144) were incubated overnight at 4°C (+ anti-NRP1, used for background corrections. Injections of 30 µl anti-PlexA4 Abcam). […] Images of the immuno-blots cells per well in a 6-well plate and serum starved overnight. were acquired and analyzed thanks to the GENE GNOME Before protein extraction, the cells were treated either with apparatus (Syngene Bio Imaging, UK).

VEGFR-2 phosphorylation = assay: ELISA of VEGFR-2 phosphorylation in HUVEC cells; conditions: VEGF 100 ng/ml
Procedure: (C) Rac-1 activation assay in resting condition and after Sema3A-induced Rac-1 activation in U373 MG cells. (D) Western blot analysis of phosphorylated Akt, total Akt and tubulin in U373MG cells treated with the vehicle (LDS 72 μM), Sema3A (100 ng/ml) or Sema3A + MTP-PlexA1 (10^−7 M). The lower panel is showing the quantification of the p-Akt/Akt ratio in the different conditions. (E) MTP-PlexA1 decreases VEGFR-2 phosphorylation induced by VEGF (100 ng/ml) in HUVEC cells.
PlexA1 is a Rho-GTPase activating protein. Consistently, it has been shown that in response to Sema3A, the Rho-GTPase Rac1 is activated and sequestered at the plasma membrane. […] Moreover, it has been shown that Sema3A inhibits Akt phosphorylation through binding of Rnd1 to PlexA1. […] From these experiments we concluded that MTP-PlexA1 is able to antagonize major signaling pathways of PlexA1 receptor.

HUVEC cells = assay: pseudo-tube formation assay, HUVEC on matrigel; conditions: 10^−7 M, 5 h, vs vehicle; p = 0.0087
From the text: We observed PlexA1 positive blood vessels in the tissue array of GBM samples (Figure 5A). […] To address this possibility we first used a transgenic zebra-fish model tg(kdrl:eGFP) highlighting the endothelial cells. This allowed us to assess the angiogenic activities in vivo by analyzing formation of intersegmental vessels (ISVs) after morpholino-based knockdown of the target.
Figure 5 MTP-PlexA1 inhibits developmental and tumor-specific PlexA1 pro-angiogenic role (A) Microphotographs illustrating the expression of PlexA1 in vascular-like structures in human glioma tissues. (Scale bar: 40 μm). (B) Morpholino-based PlexA1 knockdown in Zebrafish tg(kdrl:eGFP) line. Representative images of control, Plexin-A1 mismatch and Pexin-A1 knockdown embryos (plxna1MO) are shown 28 hours post fertilization (28hpf). […] (E) Live-monitoring of VEGF-induced HUVEC cell migration assay using the XCelligence system (transwell assay). (F) Microphotographs illustrating the expression of PlexA1 in blood vessels of the chick chorioallontoic membrane (upper left picture). Microphotographs (middle and lower left pictures) and camera lucida drawing (middle and lower right pictures) showing representative fields of observation after 24 h incubation with VEGF (100 ng/ml, +vehicle) or VEGF + MTP-PlexA1 (10^−7 M). The number of VEGF-induced new blood vessels is shown in the graph. […]

NCH644 cells = assay: MTS proliferation assay, NCH644 glioma stem cells; conditions: NCH644, p < 0.0001

For “TLPAIVGIGGGGGLLLLVIVAVLIAYKRK [MTP-PlexA1, synthetic transmembrane peptide mimicking the TMD of PlexA1]”, which “change of PlexA4 co-immunoprecipitated with PlexA1, Sema3A-induced” value (PlexA4-PlexA1 complex; Sema3A 100 ng/ml 30 min) is on record?
The value was −35.5%.

What about the “reduction of PlexA4 co-immunoprecipitated with PlexA1, VEGF” value (PlexA4-PlexA1 complex; VEGF 100 ng/ml 10 min) of the same sequence?
Its value is 35.4%.

What about the “change of VEGF-induced phosphorylation of VEGFR-2” value (VEGFR-2 phosphorylation) of the same sequence?
The value was −26%.

What about the “change of tube-like structures (HUVEC on matrigel)” value (HUVEC cells) of the same sequence?
Its value is −68%.

And the “change of proliferation of glioma stem cells” value (NCH644 cells)?
Its value is −10%.
